Data reported in US7943628B2, “Pyrimidine derivatives” (Pfizer Limited, priority 2005, dated 2011).

Experiments:
histamine H4 receptor [1] = biological target: T1, histamine H4 receptor (Homo sapiens, UniProt Q9H3N8); test: H4 binding, method 2 ([3H]-histamine binding with Ysi WGA beads on CHO cell membranes); details: for Ki: H4 binding, method 2, Ki calculated from IC50 (Cheng-Prussoff)
T1 construct: expressed in transfected cells; host or cells: CHO cells
Method in brief: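 Membranes from H4-expressing CHO cells were pre-bound to WGA SPA beads, then incubated 90 min at room temperature with 6.5 nM [3H]-histamine in 50 mM Tris-HCl pH 7.4, with or without competitor. Non-specific binding defined with 10 μM JNJ7777120; bound label read by scintillation counting.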

histamine H4 receptor [2] = biological target: T1, histamine H4 receptor; test: H4 binding, method 1 ([3H]-histamine filtration binding on CHO cell membranes); details: H4 binding, method 1; Ki calculated from IC50 (Cheng-Prussoff)
Method in brief: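 Membranes from CHO cells expressing human H4 receptor (20-35 μg/well) incubated 90 min at room temperature with 3 nM [3H]-histamine in 50 mM Tris-HCl pH 7.4, ± competitor. Bound label separated by filtration on PEI-soaked GF/B filters and counted by scintillation; non-specific binding with 10 μM JNJ7777120.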

T1 sequence (Q9H3N8 whole entry): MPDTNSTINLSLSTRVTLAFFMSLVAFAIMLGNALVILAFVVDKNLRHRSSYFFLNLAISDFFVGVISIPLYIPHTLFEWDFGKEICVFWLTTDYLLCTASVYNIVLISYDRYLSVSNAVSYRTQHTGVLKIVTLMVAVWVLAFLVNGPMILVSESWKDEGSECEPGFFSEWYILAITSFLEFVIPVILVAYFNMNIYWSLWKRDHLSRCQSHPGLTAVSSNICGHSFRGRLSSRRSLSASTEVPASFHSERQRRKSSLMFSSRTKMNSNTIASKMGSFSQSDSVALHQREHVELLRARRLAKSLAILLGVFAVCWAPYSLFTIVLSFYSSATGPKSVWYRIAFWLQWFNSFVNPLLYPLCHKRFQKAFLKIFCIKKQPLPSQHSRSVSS

**Q.** What does the source list for `CC(C)(C)CNc1cc(N2C[C@H]3CCCN[C@H]3C2)nc(N)n1` (racemic) [Example 30, N^4-(2,2-Dimethylpropyl)-6-[(4aR*,7aR*)-octahydro-6H-pyrrolo[3,4-b]pyridin-6-yl] pyrimidine-2,4-diamine]?
**A.** Ki (histamine H4 receptor [1]; Method 2 (Ki (nM))): 19.3 nM; Ki (histamine H4 receptor [2]): 3.06 nM

**Q.** `CN1CCN(c2cc(NCCC(C)(C)C)ncn2)CC1` [Example 1, N-(3,3-Dimethylbutyl)-6-(4-methylpiperazin-1-yl)pyrimidin-4-amine] was tested. Which Ki (histamine H4 receptor [1]; read-out: Method 2 (Ki (nM))) did it give?
**A.** 335 nM

**Q.** And the Ki (histamine H4 receptor [2])?
**A.** 82.3 nM

**Q.** How did the Ki (histamine H4 receptor [1]; read-out: Method 2 (Ki (nM))) turn out when `CN[C@@H]1CCN(c2cc(NCC3CC3)nc(N)n2)C1` [Example 9, N^4-(Cyclopropylmethyl)-6-[(3R)-3-(methylamino)pyrrolidin-1-yl]pyrimidine-2,4-diamine] was run?
**A.** 19.3 nM

**Q.** And the Ki (histamine H4 receptor [2])?
**A.** 2.7 nM

**Q.** How did the Ki (histamine H4 receptor [1]; read-out: Method 2 (Ki (nM))) turn out when `CN[C@@H]1CCN(c2cc(NCC(C)(C)C)nc(N)n2)C1` [Example 11, N^4-(2,2-Dimethylpropyl)-6-[(3R)-3-(methylamino)pyrrolidin-1-yl] pyrimidine-2,4-diamine] was run?
**A.** 31.6 nM

**Q.** And the Ki (histamine H4 receptor [2])?
**A.** 10.6 nM

**Q.** Which results are given for `CN[C@@H]1CCN(c2cc(NCC(C)C)ncn2)C1` [Example 14, N-Isobutyl-6-[(3R)-3-(methyl-amino)pyrrolidin-1-yl]pyrimidin-4-amine]?
**A.** Ki (histamine H4 receptor [1]; read-out: Method 2 (Ki (nM))): 23.3 nM; Ki (histamine H4 receptor [2]): 13.6 nM

**Q.** For `CC(C)CNc1cc(N2CC[C@@H](N(C)C)C2)ncn1` [Example 20, 6-[(3R)-3-(Dimethylamino)pyrrolidin-1-yl]-N-isobutyl-pyrimidin-4-amine], which Ki (histamine H4 receptor [1]; read-out: Method 2 (Ki (nM))) is on record?
**A.** 58.1 nM

**Q.** What about the Ki (histamine H4 receptor [2]) of the same compound?
**A.** 30.5 nM

**Q.** Which results are given for `CN(C)[C@@H]1CCN(c2cc(NCC(C)(C)C)ncn2)C1` [Example 22, 6-[(3R)-3-(Dimethylamino)pyrrolidin-1-yl]-N-(2,2-dimethylpropyl)pyrimidin-4-amine]?
**A.** Ki (histamine H4 receptor [1]; read-out: Method 2 (Ki (nM))): 59.3 nM; Ki (histamine H4 receptor [2]): 58.9 nM

**Q.** What does the source list for `CNC1CN(c2cc(NCC(C)C)ncn2)C1` [Example 49, N-Isobutyl-6-[3-(methylamino)azetidin-1-yl]pyrimidin-4-amine]?
**A.** Ki (histamine H4 receptor [1]; read-out: Method 2 (Ki (nM))): 29.9 nM; Ki (histamine H4 receptor [2]): 10.7 nM

**Q.** How did the Ki (histamine H4 receptor [1]; read-out: Method 2 (Ki (nM))) turn out when `CNC1CN(c2cc(NCCC(C)(C)C)ncn2)C1` [Example 59, N-(3,3-Dimethylbutyl)-6-[3-(methylamino)azetidin-1-yl]pyrimidin-4-amine] was run?
**A.** 59.2 nM

**Q.** What about the Ki (histamine H4 receptor [2]) of the same compound?
**A.** 37.7 nM

**Q.** How did the Ki (histamine H4 receptor [1]; read-out: Method 2 (Ki (nM))) turn out when `CNC1CN(c2cc(NC(C)C)nc(N)n2)C1` [Example 60, N^4-Isopropyl-6-(3-methylamino-azetidin-1-yl)-pyrimidine-2,4-diamine] was run?
**A.** 28.8 nM

**Q.** And the Ki (histamine H4 receptor [2])?
**A.** 3.57 nM

**Q.** Which Ki (histamine H4 receptor [1]; read-out: Method 2 (Ki (nM))) does the source give for `CNC1CN(c2cc(NCC(C)(C)C)nc(N)n2)C1` [Example 61, N^4-(2,2-Dimethylpropyl)-6-[3-(methylamino)azetidin-1-yl]pyrimidine-2,4-diamine] here?
**A.** 1.33 nM

**Q.** What about the Ki (histamine H4 receptor [2]) of the same compound?
**A.** 1.66 nM

**Q.** Which results are given for `CNC1CN(c2cc(NCCC(F)(F)F)nc(N)n2)C1` [Example 62, 6-(3-Methylamino-azetidin-1-yl)-N^4-(3,3,3-trifluoro-propyl)-pyrimidine-2,4-diamine]?
**A.** Ki (histamine H4 receptor [1]; read-out: Method 2 (Ki (nM))): 14.1 nM; Ki (histamine H4 receptor [2]): 8.94 nM

**Q.** `CNC1CN(c2cc(NCC3CC3)nc(N)n2)C1` [Example 63, N^4-Cyclopropylmethyl-6-(3-methylamino-azetidin-1-yl)-pyrimidine-2,4-diamine] was tested. Which Ki (histamine H4 receptor [1]; read-out: Method 2 (Ki (nM))) did it give?
**A.** 12.2 nM

**Q.** What about the Ki (histamine H4 receptor [2]) of the same compound?
**A.** 1.95 nM

**Q.** For `CNC1CN(c2cc(NCCC(C)(C)C)nc(N)n2)C1` [Example 64, N^4-(3,3-Dimethyl-butyl)-6-(3-methylamino-azetidin-1-yl)-pyrimidine-2,4-diamine], which Ki (histamine H4 receptor [1]; read-out: Method 2 (Ki (nM))) is on record?
**A.** 4.43 nM

**Q.** And the Ki (histamine H4 receptor [2])?
**A.** 4.63 nM

**Q.** For `CNC1CN(c2cc(NCc3cccc(F)c3)nc(N)n2)C1` [Example 65, N^4-(3-Fluoro-benzyl)-6-(3-methylamino-azetidin-1-yl)-pyrimidine-2,4-diamine], which Ki (histamine H4 receptor [1]; read-out: Method 2 (Ki (nM))) is on record?
**A.** 19.8 nM

**Q.** And the Ki (histamine H4 receptor [2])?
**A.** 17.5 nM

**Q.** What does the source list for `CNC1CN(c2cc(NCC3CCC3)nc(N)n2)C1` [Example 67, N^4-Cyclobutylmethyl-6-(3-methylamino-azetidin-1-yl)-pyrimidine-2,4-diamine]?
**A.** Ki (histamine H4 receptor [1]; read-out: Method 2 (Ki (nM))): 1.6 nM; Ki (histamine H4 receptor [2]): 0.278 nM

**Q.** With `CNC1CN(c2cc(NCC3CCCC3)nc(N)n2)C1` [Example 68, N^4-Cyclopentylmethyl-6-(3-methylamino-azetidin-1-yl)-pyrimidine-2,4-diamine] as the compound, how does the Ki (histamine H4 receptor [1]; read-out: Method 2 (Ki (nM))) read?
**A.** 6.26 nM

**Q.** And the Ki (histamine H4 receptor [2])?
**A.** 0.979 nM

**Q.** Which results are given for `CNC1CN(c2cc(NCC(C)C)nc(N)n2)C1` [Example 71, N^4-Isobutyl-6-[3-(methylamino)azetidin-1-yl]pyrimidine-2,4-diamine]?
**A.** Ki (histamine H4 receptor [1]; read-out: Method 2 (Ki (nM))): 14 nM; Ki (histamine H4 receptor [2]): 1.29 nM

**Q.** `CNC1CN(c2cc(NCCC(C)C)nc(N)n2)C1` [Example 74, 6-[3-(Methylamino)azetidin-1-yl]-N^4-(3-methylbutyl)pyrimidine-2,4-diamine] was tested. Which Ki (histamine H4 receptor [1]; read-out: Method 2 (Ki (nM))) did it give?
**A.** 16.8 nM

**Q.** What about the Ki (histamine H4 receptor [2]) of the same compound?
**A.** 0.58 nM

**Q.** Which Ki (histamine H4 receptor [1]; Method 2 (Ki (nM))) does the source give for `CN1CCN(c2cc(NCC(C)(C)C)ncn2)CC1` [Example 99, N-(2,2-Dimethylpropyl)-6-(4-methylpiperazin-1-yl)pyrimidin-4-amine] here?
**A.** 38.1 nM

**Q.** And the Ki (histamine H4 receptor [2])?
**A.** 23.6 nM

**Q.** What does the source list for `CC(C)(C)CCNc1cc(N2CCNCC2)ncn1` [Example 111, N-(3,3-Dimethylbutyl)-6-piperazin-1-ylpyrimidin-4-amine]?
**A.** Ki (histamine H4 receptor [1]; read-out: Method 2 (Ki (nM))): 1800 nM; Ki (histamine H4 receptor [2]): 201 nM

**Q.** Which results are given for `CC(C)Nc1cc(N2CCN(C)CC2)nc(N)n1` [Example 119, N^4-Isopropyl-6-(4-methylpiperazin-1-yl)pyrimidine-2,4-diamine]?
**A.** Ki (histamine H4 receptor [1]; Method 2 (Ki (nM))): 7.8 nM; Ki (histamine H4 receptor [2]): 3.44 nM

**Q.** How did the Ki (histamine H4 receptor [1]; Method 2 (Ki (nM))) turn out when `CCNc1cc(N2CCN(C)CC2)nc(N)n1` [Example 120, N^4-Ethyl-6-(4-methylpiperazin-1-yl)pyrimidine-2,4-diamine] was run?
**A.** 11.2 nM

**Q.** What about the Ki (histamine H4 receptor [2]) of the same compound?
**A.** 4.89 nM

**Q.** `CC(C)CNc1cc(N2CCN(C)CC2)nc(N)n1` [Example 121, N^4-Isobutyl-6-(4-methylpiperazin-1-yl)pyrimidine-2,4-diamine] was tested. Which Ki (histamine H4 receptor [1]; Method 2 (Ki (nM))) did it give?
**A.** 6.64 nM

**Q.** What about the Ki (histamine H4 receptor [2]) of the same compound?
**A.** 2.18 nM

**Q.** With `CN1CCN(c2cc(NCC3CC3)nc(N)n2)CC1` [Example 122, N^4-(Cyclopropylmethyl)-6-(4-methylpiperazin-1-yl)pyrimidine-2,4-diamine] as the compound, how does the Ki (histamine H4 receptor [1]; Method 2 (Ki (nM))) read?
**A.** 8.65 nM

**Q.** And the Ki (histamine H4 receptor [2])?
**A.** 3.65 nM

**Q.** How did the Ki (histamine H4 receptor [1]; read-out: Method 2 (Ki (nM))) turn out when `CCN1CCN(c2cc(NCCC(C)(C)C)ncn2)CC1` [Example 270, N-(3,3-Dimethylbutyl)-6-(4-ethylpiperazin-1-yl)pyrimidin-4-amine] was run?
**A.** > 16200 nM

**Q.** What about the Ki (histamine H4 receptor [2]) of the same compound?
**A.** 839 nM

**Q.** Which results are given for `CN1CCC(N(C)c2cc(NCCC(C)(C)C)ncn2)CC1` [Example 279, N′-(3,3-Dimethylbutyl)-N-methyl-N-(1-methylpiperidin-4-yl)pyrimidine-4,6-diamine]?
**A.** Ki (histamine H4 receptor [1]; read-out: Method 2 (Ki (nM))): > 9130 nM; Ki (histamine H4 receptor [2]): 1370 nM

**Q.** With `CC(C)(C)CCNc1cc(N2CCC(N)CC2)ncn1` [Example 340, 6-(4-Aminopiperidin-1-yl)-N-(3,3-dimethylbutyl)pyrimidin-4-amine] as the compound, how does the “Method 2, % at 40 μM” value (histamine H4 receptor [1]) read?
**A.** 50% at 40 μM

**Q.** `c1nc(NC[C@@H]2CCCO2)cc(N[C@@H]2CCNC2)n1` [Example 341, N-[(3R)-Pyrrolidin-3-yl]-N′-[(2S)-tetrahydrofuran-2-ylmethyl]pyrimidine-4,6-diamine] was tested. Which Ki (histamine H4 receptor [1]; read-out: Method 2 (Ki (nM))) did it give?
**A.** 16300 nM

**Q.** `CC(C)(C)CCNc1cc(N2CC[C@H](N3CCCC3)C2)ncn1` [Example 342, 6-[(3′S)-1,3′-Bipyrrolidin-1′-yl]-N-(3,3-dimethylbutyl)pyrimidin-4-amine] was tested. Which “Method 2, % at 40 μM” value (histamine H4 receptor [1]) did it give?
**A.** 13% at 40 μM

**Q.** `CN1CCC(Nc2cc(NCCC(C)(C)C)ncn2)CC1` [Example 343, N-(3,3-Dimethylbutyl)-N′-(1-methylpiperidin-4-yl)pyrimidine-4,6-diamine] was tested. Which “Method 2, % at 40 μM” value (histamine H4 receptor [1]) did it give?
**A.** 53% at 40 μM

**Q.** With `COCCNc1cc(N[C@H]2CCNC2)ncn1` [Example 344, N-(2-Methoxyethyl)-N′-[(3S)-pyrrolidin-3-yl]pyrimidine-4,6-diamine] as the compound, how does the “Method 2, % at 40 μM” value (histamine H4 receptor [1]) read?
**A.** 40% at 40 μM

**Q.** `c1nc(NC[C@H]2CCCO2)cc(N[C@@H]2CCNC2)n1` [Example 345, N-[(3R)-Pyrrolidin-3-yl]-N′-[(2R)-tetrahydrofuran-2-ylmethyl]pyrimidine-4,6-diamine] was tested. Which “Method 2, % at 40 μM” value (histamine H4 receptor [1]) did it give?
**A.** 49% at 40 μM

**Q.** How did the Ki (histamine H4 receptor [1]; read-out: Method 2 (Ki (nM))) turn out when `c1ccc(CCNc2cc(N[C@@H]3CCNC3)ncn2)cc1` [Example 346, N-(2-Phenylethyl)-N′-[(3R)-pyrrolidin-3-yl]pyrimidine4,6-diamine] was run?
**A.** 38400 nM

**Q.** How did the Ki (histamine H4 receptor [1]; read-out: Method 2 (Ki (nM))) turn out when “N-Methyl-6-[3-(methylamino)azetidin-1- yl]pyrimidin-4-amine [Example 58]” was run?
**A.** 301 nM
